Here are results for two compounds from patent US20230075779A1, “METHODS AND COMPOSITIONS FOR TREATING CANCER OR VIRAL INFECTION WITH A PLA2G2D ANTAGONIST” (Apeximmune Therapeutics Inc., priority 2020, published 2023).

“Also recorded” adds a separate entry of the source.

The target of one test is T1, PLA2G2D (Homo sapiens, UniProt Q9UNK4).
T1 sequence (Q9UNK4 21-145): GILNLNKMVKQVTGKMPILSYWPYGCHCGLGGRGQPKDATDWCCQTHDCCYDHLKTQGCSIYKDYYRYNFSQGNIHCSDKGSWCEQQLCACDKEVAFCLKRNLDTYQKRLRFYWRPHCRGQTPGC
The experiment in a line: Reversal of PLA2G2D-Fc induced suppression of T cell proliferation in PBMC culture by sPLA2 inhibitor. Format: cell-based. Particulars: 0-25 μM inhibitor, PBMC culture with wild type PLA2G2D-Fc.

Test [1] has as its system PBMC derived CD4+ and CD8+ T cells. The experiment in a line: T cell proliferation (CFSE) in anti-CD3/anti-CD28 stimulated PBMC culture, soluble protein. In kind it is cell-based, human. Conditions: soluble protein 0-20 μg/ml, 72 hours. Here is the method: The effect of human PLA2G2D-Fc on T cell activation was assessed in peripheral blood mononuclear cell (PBMC) or isolated T cell cultures. PBMC were isolated from leukoreduction system (LRS) chambers from healthy human donors by centrifugation over Ficoll-Paque Plus (GE Life Sciences) and labeled in a 5 μM CFSE solution (Molecular Probes) for 12 min at 37° C. and washed. 2×10^5 labeled PBMC per well of a 96 well round bottom plate were then stimulated with 1 μg/ml anti-CD3 (OKT3, Invitrogen) and 0.2 μg/ml anti-CD28 (CD28.2, Invitrogen) in the presence of soluble 0-20 μg/ml human PLA2G2D-Fc or control human IgG1-Fc protein (Sino Biological) as indicated in a final volume of 200 μl RPMI (Corning). PBMC cultures were incubated for 72 hours at 37° C. before the supernatants were harvested and measured for IFNγ and IL-2 levels using MSD V-plex assays (Meso Scale Discovery). T cell proliferation within the PBMC culture was simultaneously assessed by staining cells with fluorophore-conjugated anti-CD3, anti-CD4, and anti-CD8 antibodies (Biolegend) and Live/Dead Fixable dead cell stain (Molecular Probes), and running on a BD LSRFortessa X-20 flow cytometer (Becton Dickinson). FACS data was analyzed using FlowJo software. […]

For a further test, the system named is primary human T cells. The experiment in a line: Binding of PLA2G2D-Fc to resting and activated primary human T cells (FACS). Conditions: 0-10 μg/ml. The method, then:
To determine whether PLA2G2D elicits immune suppression by directly binding to T cells in vitro, the level of PLA2G2D binding was assessed on resting and activated primary human T cells. T cells were isolated from PBMC using a Pan T Cell Isolation Kit (Miltenyi) and cultured in the presence or absence of beads loaded with anti-human CD2, CD3, and CD28 antibodies (human T Cell Activation/Expansion Kit, Miltenyi) in RPMI for 48 hours at 37° C. Stimulated or unstimulated T cells were then harvested, washed, and incubated with 0-10 μg/ml of human PLA2G2D-Fc protein or human IgG1-Fc protein for 30 minutes at 4° C. Cells were washed 3 times with PBS and then stained with Alexa 488-conjugated goat anti-human IgG1 antibodies (Invitrogen) for 30 minutes at 4° C., washed, then analyzed by FACS.

For the next test, the system named is PBMC cultures. In words: IFNγ and IL-2 levels in stimulated PBMC culture supernatants (MSD V-plex). Format: cell-based, human. Particulars: soluble protein 0-20 μg/ml, 72 hours. Here is the method:
The effect of human PLA2G2D-Fc on T cell activation was assessed in peripheral blood mononuclear cell (PBMC) or isolated T cell cultures. PBMC were isolated from leukoreduction system (LRS) chambers from healthy human donors by centrifugation over Ficoll-Paque Plus (GE Life Sciences) and labeled in a 5 μM CFSE solution (Molecular Probes) for 12 min at 37° C. and washed. 2×10^5 labeled PBMC per well of a 96 well round bottom plate were then stimulated with 1 μg/ml anti-CD3 (OKT3, Invitrogen) and 0.2 μg/ml anti-CD28 (CD28.2, Invitrogen) in the presence of soluble 0-20 μg/ml human PLA2G2D-Fc or control human IgG1-Fc protein (Sino Biological) as indicated in a final volume of 200 μl RPMI (Corning). PBMC cultures were incubated for 72 hours at 37° C. before the supernatants were harvested and measured for IFNγ and IL-2 levels using MSD V-plex assays (Meso Scale Discovery). T cell proliferation within the PBMC culture was simultaneously assessed by staining cells with fluorophore-conjugated anti-CD3, anti-CD4, and anti-CD8 antibodies (Biolegend) and Live/Dead Fixable dead cell stain (Molecular Probes), and running on a BD LSRFortessa X-20 flow cytometer (Becton Dickinson). FACS data was analyzed using FlowJo software.

For another test, the system named is isolated T cells. The experiment in a line: Proliferation of isolated T cell cultures with anti-CD3/anti-CD28 stimulation. In kind it is cell-based, human. Here is the method:
To evaluate the effect of PLA2G2D protein on isolated T cells, […] protein as well as with 1 μg/ml anti-CD3 (OKT3) and 0.2 μg/ml anti-CD28 (CD28.2) in 100 μl of PBS. The following day, plates were washed twice with PBS before addition of T cells. T cells were isolated from PBMC using a Pan T Cell Isolation Kit (Miltenyi) and labeled with CFSE as described above. 1×10^5 purified and labeled T cells were added to each well of the coated plate in a final volume of 200 μl RPMI. T cells were allowed to proliferate for 72 hours at 37° C. before supernatants were collected for IFNγ and IL-2 analysis by MSD and proliferation was analyzed by FACS.

Test [2] has as its system CD4+ and CD8+ T cells in PBMC cultures. In words: T cell proliferation in stimulated PBMC culture, plate-immobilized protein. Format: cell-based, human. Particulars: immobilized protein coated at 0-10 μg/ml. The method, then: The effect of human PLA2G2D-Fc on T cell activation was assessed in peripheral blood mononuclear cell (PBMC) or isolated T cell cultures. […] PBMC cultures were incubated for 72 hours at 37° C. before the supernatants were harvested and measured for IFNγ and IL-2 levels using MSD V-plex assays (Meso Scale Discovery). T cell proliferation within the PBMC culture was simultaneously assessed by staining cells with fluorophore-conjugated anti-CD3, anti-CD4, and anti-CD8 antibodies (Biolegend) and Live/Dead Fixable dead cell stain (Molecular Probes), and running on a BD LSRFortessa X-20 flow cytometer (Becton Dickinson). FACS data was analyzed using FlowJo software.
To assess the effect of immobilized PLA2G2D protein on T cell proliferation in PBMC cultures, the same assay was utilized except 100 μl of 0-10 μg/ml human PLA2G2D-Fc or control human IgG1-Fc protein was coated overnight in PBS at 4° C. on 96-well flat bottom plates the day before PBMC were prepared and added along with anti-CD3 and anti-CD28 antibodies.

For `CCc1c(C(=O)C(N)=O)c2c(OCC(=O)O)cccc2n1Cc1ccccc1` [LY315920], the “reversal of immune suppression induced by PLA2G2D” value on PLA2G2D is recorded as “does not rescue immune suppression; also recorded: does not reverse immune suppression”.

“PLA2G2D-Fc: soluble human PLA2G2D-Fc protein (Sino Biological); the immunosuppressive protein studied”: the “CD4+ and CD8+ T cell proliferation” value in test [1] was “dose-dependently suppresses; also recorded: dose dependently suppressed”; in test [1] (listed as PLA2G2D protein), “dose-dependently suppresses”; in test [2] it was “suppressed”; in test [2] (listed as PLA2G2D protein), “dose-dependently suppresses”. For the same compound, the “binding to activated CD4+ and CD8+ T cells” value with primary human T cells (stimulated T cells, compared with control human IgG1-Fc) is recorded as “preferentially binds”. The “binding to unstimulated T cells” value in the test on primary human T cells (unstimulated T cells) is on record as “to a small degree”. The “levels of IFNγ and IL-2” value with PBMC cultures is “dose-dependently and significantly decreased”; in the test with PBMC cultures (listed as PLA2G2D protein), “dose-dependently suppresses”. Also, the “proliferation of isolated T cell cultures” value in the test with isolated T cells (immobilized protein coated at 0-10 μg/ml, 72 hours) is “dose-dependently suppresses”. Also, the “suppressive effect on isolated T cells” value with isolated T cells (soluble protein added instead of coated (data not shown)) is on record as “no suppressive effect”.
